Test results: patent US6989435B2, “Compounds and methods to inhibit or augment an inflammatory response” (Cambridge University Technical Services Ltd., priority 1997, dated 2006)
Marks after values point to notes of the source that are not given here. Positions of bridges follow the written chain, without caps; N, C: chain ends. Non-standard residues stand in square brackets, D forms with d. Residues, ends and D or L forms follow the SMILES beside them. ξ: configuration not given here. ξI = CCC(C)C(N)C(=O)O

Experiments:
[1] = Stability against acid hydrolysis; type: physicochemical; details: pH 2.0 for 2 hrs at 37° C.
Method: (§1) For example, to prepare a peptide 3 derivative, peptide 3(3-12)[MCP-1] was modified according to Jameson et al. (Nature, 368, 744 (1994)), which yielded CRD-Cys13leu4ile11peptide 3[MCP-1] (FIG. 4). CRD-Cys13eu4ile11peptide 3[MCP-1], which had very similar properties to peptide 3(1-12)[MCP-1] […] CRD-Cys13leu4ile11peptide 3[MCP-1] was also resistant to hydrolysis in vivo and allowed therapeutically useful plasma concentrations to be achieved (>10 μM 24 hours after a single intraperitoneal dose of 1 mg of CRD-Cys13leu4ile11peptide 3[MCP-1] in 250 μl saline).

[2] = system: trypsin; assay: Stability against enzymatic destruction; type: in vitro ADME; details: 5 units trypsin for 2 hrs at 37° C.
Method: as §1

[3] = Plasma concentration after a single intraperitoneal dose; type: in vivo; details: ip, 24 hours after a single intraperitoneal dose of 1 mg in 250 μl saline
Method: as §1

[4] = system: chemokine receptors on THP-1 cells; assay: Binding to THP-1 cells; parameters: species or system human; details: Table 7
Method: In general, specific binding is calculated as the amount of labeled agent bound in the absence of cold competitor minus the amount of labeled agent bound in the presence of cold competitor. The amount of specific binding in the presence of varied amounts of cold competitor can be used to determine the association constant for the agent, as well as the number of binding sites on the cell for the agent, using, for example, Scatchard Analysis. The agent may be labeled by radiolabeling (e.g., iodination) or with a suitable biochemical tag (e.g., biotin) or by addition of a photoactivatable crosslinking group. […]
For example, monocytes are suspended in RPMI 1640 medium without bicarbonate containing 0.2% bovine serum albumin and 0.1% azide. […] Filters are washed with 4 ml of cold wash buffer, and the radioactivity bound to the filters is counted in a γ-counter.
For competition studies, the IC50 is calculated with a curve fitting program (GraFit, Erithacus Software, London), using a four-parameter logistic, cpmbound=cpmmax/(1+([L]/IC50)^S)+cpmns, where cpmmax represents the binding without competitor, [L] is the competitor concentration, cpmns is the non-specific binding, and s is the slope factor. […]

Row | degradation by acid hydrolysis [1] | stability against enzymatic destruction [2] | level at time molar at 24 h [3] | Molecule | AVERAGE ED50 (peptide 2 family: estimated ka for binding to THP-1 cells) [4]
1 | < 10% | stable | > 10 µM | CCC(C)C1NC(=O)[C@@H](CCC(N)=O)NC(=O)[C@H](N)CSSC[C@H](C(=O)O)NC(=O)[C@@H](CC(C)C)NC(=O)[C@@H](CC(=O)O)NC(=O)[C@H]2CCCN2C(=O)[C@@H](CCCCN)NC(=O)[C@@H](CCC(N)=O)NC(=O)[C@@H](CCCCN)NC(=O)[C@@H](Cc2c[nH]c3ccccc23)NC1=O (stereo partly drawn) [CRD-Cys13Leu4ile11peptide 3] (H-[dC][dQ][ξI][dW][dK][dQ][dK][dP][dD][dL][dC]-OH; disulfide 1-11; N-terminus and C-terminus assumed) | –
2 | – | – | – | ELRVIESGPHCANTEI [Pep2[IL8]] | 1-10^c μM
3 | – | – | – | HLKILNTPNCALQIV [Pep2[SDF1]] | 1-10^c μM
